Experimental data taken from patent publication US20260345526A1, “Amphenicol Adjuvant Improves Bioavailability and Efficacy” (priority 2023, published 2026).
Where “and” joins values, the source holds several entries; their conditions need not be identical. Equal entries are not always repeated.

Experiments:
P. salmonis = experiment: Minimum inhibitory concentration of florfenicol on P. salmonis in infected SHK-1 cells; assay type: cell-based
Method: FIGS. 1 and 2. Cytotoxicity of andrographolide sodium bisulfite (PubChem CID: 133555830, “AP1”) and andrographolide sulphonate (PubChem CID: 72191954, “AP2”) in combination with florfenicol in SHK-1 cells treated and infected with P. salmonis. Cells were treated with AP1 (FIG. 1) and AP2 (FIG. 2) at 4.6 and 9 ng/mL and florfenicol in the range of 0,125; 0,250; 0.5 and […]. LDH analysis was done day 12 post-infection. Cells+Ps, cells infected without treatment; Vehicle+Ps, cells infected and treated with ethanol. “Flo sin AP” means florfenicol without an andrographolide; “Flo+AP” means florfenicol with an andrographolide. The percentage of cytotoxicity was calculated with respect to the control of total lysis of cells and the negative control (cells without treatment and infection) with the control florfenicol without AP. […] ANOVA y Fisher.
The effect of andrographolide on the antibiotic action of florfenicol, was corroborated by LDH in the supernatant in cells with different treatments showing the synergistic effect of andrographolide (AP) in the range of 0.125; 0.25 and 0.5 μg/mL of the antibiotic.

coho salmon [1] = experiment: Mortality and cause of death in coho salmon; assay type: in vivo
From the text: FIG. 4 measures accumulated mortality over 14 days for coho salmon treated with florfenicol alone and combined with andrographolide.
(§1) Odd-numbered cages received feed medicated with both florfenicol and with andrographolide (0.044 kg andrographolide per ton of feed) for 15 days. Even-numbered cages received feed medicated with only florfenicol. X Axis=day; Y axis (left)=accumulated mortality; Y axis (right)=periodic mortality. For each period, the left bar is florfenicol alone, the right bar is florfenicol and andrographolide. For cumulative mortality, the upper line (at date #5) is florfenicol alone, the lower line is florfenicol and andrographolide.
In addition, it changes the causes of mortality. Table 2 compares the cause of death for the two groups.

[2] = Florfenicol residue in muscle of coho salmon after treatment (Table 1); assay type: in vivo; parameters: florfenicol (residue): unit not given here; conditions: for florfenicol (residue): florfenicol 20 mg/kg
Method: Florfenicol (“FF”) was administered at a dose of 20 mg/kg at 15 days and at 30 days before harvesting. Andrographolide and seaweed powder were mixed with conventional fish feed at a dose of 1.056 kg seaweed powder and 0.044 kg andrographolide (“NATCONTROL”) per ton of feed. The NORMAL group corresponds to fish fed antibiotic without andrographolide.
So the farmer can treat with antibiotic closer to harvest, and harvested fish have far less antibiotic residue in their meat. […] This enables one to use a smaller dose of antibiotic to achieve the same effect. The residues of florfenicol at various days post-treatment indicate a more-rapid metabolization of florfenicol in fish muscle receiving andrographolide (<24 or not detected).

[3] = Plasma concentration of florfenicol over time; assay type: in vivo, coho salmon
From the text: FIG. 3. Plasma concentration of florfenicol over time: distribution of levels of plasma florfenicol. Y axis=Florfenicol plasma concentration (g/L). X axis=time (t=0, 5 days and 12 days). For each of the three days reported, the left bar is for fish treated with florfenicol alone, the right bar is for fish treated with florfenicol and also fed andrographolide.
as §1

coho salmon [4] = experiment: Quality of the fish at harvest time; assay type: in vivo
From the text: as §1
Table 3 compares the quality of the fish at harvest time. Premium Quality (“PRM”) fish have an absence of skin lesions and adequate body weight. A total of 332,315 fish were treated with florfenicol+andrographolide (“Impares Nat Control”) and 301,334 fish were treated with florfenicol alone (“Pares Normal”).

[5] = florfenicol combined with the andrographolide (AP1 or AP2)
[6] = andrographolide co-fed with florfenicol, coho salmon
[7] = absence of skin lesions and adequate body weight

Compound: C=C1CCC2[C@](C)(CO)[C@H](O)CC[C@@]2(C)[C@@H]1CC(C1C(=O)OC[C@H]1O)S(=O)(=O)[O-].[Na+] (stereo partly shown) [AP1, andrographolide sodium bisulfite]
- minimum inhibitory concentration of florfenicol (P. salmonis; [5]): 0.25 µg/mL

Compound: andrographolide sulphonate [AP2]
- minimum inhibitory concentration of florfenicol (P. salmonis; [5]): 0.25 µg/mL

Compound: C=C1CC[C@@H]2[C@](C)(CO)[C@H](O)CC[C@@]2(C)[C@@H]1C/C=C1/C(=O)OC[C@H]1O [andrographolide]
- mortality (coho salmon [1]; andrographolide with florfenicol vs florfenicol alone): decreases mortality
- in vivo metabolism and clearance of florfenicol [2, 6]: hastens the in vivo metabolism and clearance of florfenicol
- antibiotic (florfenicol) concentration in plasma [3, 6]: increases antibiotic concentration in plasma
- average plasma florfenicol levels ([3]; fish treated with florfenicol and fed andrographolide vs florfenicol alone, 5 and 12 days): higher average plasma florfenicol levels

Compound: CS(=O)(=O)c1ccc([C@@H](O)[C@@H](CF)NC(=O)C(Cl)Cl)cc1 [florfenicol]
- minimum inhibitory concentration of florfenicol (P. salmonis; without andrographolide): 0.5 µg/mL
- Cause of death: Mechanical damage (coho salmon [1]; Example 3): 41.6 % of Total Deaths
- Cause of death: No apparent cause (coho salmon [1]; Example 3): 9.3 % of Total Deaths
- Cause of death: Runt (very small) fish (coho salmon [1]; Example 3): 0 % of Total Deaths
- Cause of death: SRS (skin lesions) (coho salmon [1]; Example 3): 25.0 % of Total Deaths
- Time of death: In holding pen before harvesting (coho salmon [1]; Example 3): 10.9 % of Total Deaths
- FA fish, % (coho salmon [4]): 4.65%
- FA fish, No (coho salmon [4]): 14012 No
- GA1 fish, % (coho salmon [4]): 17.87%
- GA1 fish, No (coho salmon [4]): 53835 No
- GA2 fish, % (coho salmon [4]): 1.426%
- GA2 fish, No (coho salmon [4]): 4297 No
- percentage of Premium Quality fish (coho salmon [4]): 76.1%
- PRM (Premium Quality) fish, % (coho salmon [4]; [7]): 76.06%
- PRM (Premium Quality) fish, No (coho salmon [4]; [7]): 229190 No
- florfenicol (residue) ([2]; Cage No. 101, andrographolide diet, Test Report No. 44.217-22): <24
- florfenicol (residue) ([2]; Cage No. 102, normal diet (no andrographolide), Test Report No. 44.218-22): 270 and 363 and 502
- florfenicol (residue) ([2]; Cage No. 103, andrographolide diet, Test Report No. 44.215-22): <24
- residues of florfenicol in fish muscle ([2]; fish receiving andrographolide, various days post-treatment): < 24
